In patent US20070191414A1, “Novel isoamido-substituted hydroxy-6-phenylphenanthridines” (Altana Pharma AG, priority 2004, published 2007):

Target: T1, PDE4B2 (Homo sapiens, UniProt Q07343)
T1 construct: made in house; host or cells: SF21 insect cells (baculovirus; virus prepared in SF9 cells)
Experiment: Inhibition of PDE4B2 activity, modified [3H]cAMP SPA (scintillation proximity assay)
Type: biochemical
Details: recombinant PDE4B2 expressed in SF21 insect cells; 0.5 μM cAMP; 15 min at 37° C.; read-out: Inhibition of the PDE4 activity, −log IC50(mol/l) (converted)
Method: The PDE4B2 (GB no. M97515) was a gift of Prof. M. Conti (Stanford University, USA). It was amplified from the original plasmid (pCMV5) via PCR with primers. Rb9 (5′- […] -3′) and Rb 10 (5′- […] -3′) and cloned into the pCR-Bac vector (Invitrogen, Groningen, NL).
The recombinant baculovirus was prepared by means of homologous recombination in SF9 insect cells. The expression plasmid was cotransfected with Bac-N-Blue (Invitrogen, Groningen, NL) or Baculo-Gold DNA (Pharmingen, Hamburg) using a standard protocol (Pharmingen, Hamburg). Wt virus-free recombinant virus supernatant was selected using plaque assay methods. After that, high-titre virus supernatant was prepared by amplifying 3 times. PDE was expressed in SF21 cells by infecting 2×10^6 cells/ml with an MOI (multiplicity of infection) between 1 and 10 in serum-free SF900 medium (Life Technologies, Paisley, UK). […]
The SF21 insect cells were resuspended, at a concentration of approx. 10^7 cells/ml, in ice-cold (4° C.) homogenization buffer (20 mM Tris, pH 8.2, containing the following additions: 140 mM NaCl, 3.8 mM KCl, 1 mM EGTA, 1 mM MgCl2, 10 mM β-mercaptoethanol, 2 mM benzamidine, 0.4 mM Pefablock, 10 μM leupeptin, 10 μM pepstatin A, 5 μM trypsin inhibitor) and disrupted by ultrasonication. […] The protein content was determined by the Bradford method (BioRad, Munich) using BSA as the standard. […]

T1 sequence (Q07343 1-564 isoform Q07343-2): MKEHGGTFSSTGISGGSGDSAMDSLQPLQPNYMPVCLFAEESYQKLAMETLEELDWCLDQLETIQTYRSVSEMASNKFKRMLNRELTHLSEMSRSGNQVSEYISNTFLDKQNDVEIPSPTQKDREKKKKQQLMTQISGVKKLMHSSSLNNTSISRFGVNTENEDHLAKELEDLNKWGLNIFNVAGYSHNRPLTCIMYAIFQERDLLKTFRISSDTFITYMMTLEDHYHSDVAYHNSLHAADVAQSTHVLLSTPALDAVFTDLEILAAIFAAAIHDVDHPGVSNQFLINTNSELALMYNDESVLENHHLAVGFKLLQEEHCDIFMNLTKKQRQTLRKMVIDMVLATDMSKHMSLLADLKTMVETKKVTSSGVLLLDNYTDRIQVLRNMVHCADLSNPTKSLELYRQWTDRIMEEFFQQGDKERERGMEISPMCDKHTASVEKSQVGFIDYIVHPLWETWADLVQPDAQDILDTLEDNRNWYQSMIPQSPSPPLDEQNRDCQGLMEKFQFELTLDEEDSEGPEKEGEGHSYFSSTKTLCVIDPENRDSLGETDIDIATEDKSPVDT

CCOc1cc2c(cc1OC)C(c1cccc(NC(=O)CCNC(N)=O)c1)=N[C@@H]1CC[C@@H](O)C[C@H]21 (racemic) [Compound 19, N-[3-((2RS,4aRS,10bRS)-9-Ethoxy-2-hydroxy-8-methoxy-1,2,3,4,4a,10b-hexahydro-phenanthridin-6-yl)-phenyl]-3-ureido-propionamide]
IC50: 1.48 nM
